The series is described as follows: Human HepG2 cell viability assay in 384 well format. The format is toxicity, cell-based. Also noted: dose 125 nL, time 70.5 hour; concentration not given beside the values. As to conditions: HepG2 cells, read-out: Inhibition.

With `COc1ccc(CCn2cnnc2[S+](C)[O-])cc1` (centres undefined), the cytotoxicity at 70.5 h is -10%.
`O=C(c1cc[nH]n1)N(Cc1ccccc1)CC1CCC1`: the cytotoxicity at 70.5 h is -9.65%.
The same measure for `CC(C)CN1Cc2cccc(NC(=O)Cc3ccon3)c2C1`: -4.05%; for `COc1ccc(CN2CCN(c3ncc(Cl)cn3)CC2)cc1`: 13.2%; for `O=C(CCc1ccco1)Nc1ccc(Br)cn1`: 28.6%.
The same measure for `C[S+]([O-])c1nncn1CCc1ccccc1` (centres undefined): 17.1%; for `Cc1cc(CSc2nc(=O)ccn2C(C)C)no1`: -3.31%; for `Cc1nc(CSc2nc(=O)ccn2C(C)C)cs1`: -6.6%.
The same measure for `Cc1c(C(=O)N(CCN(C)C)Cc2ccccn2)oc2ccccc12`: -5.85%.
As to `Cc1occc1C(=O)N(CCN(C)C)Cc1ccccn1`, the cytotoxicity at 70.5 h is 15.9%.
The result for `Cc1cnn(-c2ccc(C(=O)N3CCN(C)CC3C)cc2)c1` (centres undefined) reads -3.9%; that for `CSC(C)C(=O)N1CCN(CCO)CC1` (centres undefined), -6.94%; that for `CC(C)COCCC(=O)NS(=O)(=O)c1ccc(Cl)s1`, -16.7%.
Consider `CCC(Nc1nnnn1-c1ccccc1)C(=O)NCc1cccs1` (centres undefined), for which the cytotoxicity at 70.5 h was -8.74%.
The same measure for `Cc1cc(C(=O)N2CCN(Cn3cc(Cl)cn3)CC2)c(C)o1`: -5.19%.
The same measure for `CC(=O)NC(C)C(=O)Nc1ccc(OCc2cccc(F)c2)cc1C` (centres undefined): -9.98%; for `CC(=O)N1CCN(C(=O)CNc2c(C)cccc2OC(F)F)CC1`: -10.2%.
The same measure for `CN(C)S(=O)(=O)c1ccc(CSCC(=O)NC(C)(C)C)o1`: -8.48%; for `COc1ccsc1C(=O)Nc1cc(Cl)c(=O)n(C)c1`: -5.8%; for `CCc1ccc(C(=O)O)cc1S(=O)(=O)Nc1c(C)ccn(C)c1=O`: -9.15%.
Consider `O=C(COCC(F)(F)F)NC1CCCc2cc(OC(F)F)ccc21` (centres undefined), for which the cytotoxicity at 70.5 h is -6.74%.
The same measure for `CCc1ccsc1C(=O)N1CCS(=O)(=O)CC1`: -8.8%; for `CNC(=O)CC1CCN(C(=O)NCc2coc3ccccc23)CC1`: 7.31%.
The same measure for `CCOc1cc(CNC(=O)C(C#N)c2nc(C)cs2)ccc1OC(F)F` (centres undefined): -0.465%.
As for `CC(=O)N1CCC(Nc2cccc(OC(F)F)c2C)CC1`, the cytotoxicity at 70.5 h is -7.15%.
The result for `CN1CCN(C(=O)Cc2ccc(S(=O)(=O)C(F)F)cc2)CC1` reads -8.11%; that for `CCOCCCC(=O)NS(=O)(=O)c1ccc(C)s1`, -0.611%.
The result for `COCCOC1CCN(C(=O)NCc2coc3ccccc23)CC1` reads -6.59%.
The result for `CC(c1ccccn1)N(C)C(=O)NCCn1c(=O)oc2ccccc21` (centres undefined) reads 6.82%; that for `Cc1ccc2c(c1)C(NCc1nccn1Cc1ccccc1)CCCO2` (centres undefined), -13.4%; that for `CC(C)c1nc(CNC(C(=O)N2CCOCC2)C(C)C)no1` (centres undefined), -5.23%.
With `Cc1nc(CNC(C(=O)N2CCOCC2)C(C)C)oc1C` (centres undefined), the cytotoxicity at 70.5 h was -5.87%.
The same measure for `CN(CCOc1ccc(Cl)cc1)Cc1ccc(S(=O)(=O)N(C)C)o1`: -2.41%; for `Cc1noc(C)c1CC(=O)Nc1ccn(CC(N)=O)n1`: -5.49%.
As for `O=C(Nc1ccccn1)C1CCN(Cc2cccc3c2OCCO3)CC1`, the cytotoxicity at 70.5 h was 27.9%.
The result for `NC(=O)[C@@H]1Cc2ccccc2CN1S(=O)(=O)N1CCCCCC1` reads -4.6%; that for `CC(=O)N(C)c1nc(Cn2nnnc2C2CCCC2)cs1`, 0.35%.
The result for `Cn1cnnc1C1CCCN(C(=O)c2cc(-c3ccccc3)on2)C1` (centres undefined) reads -9.15%; that for `CS(=O)(=O)c1cccc(C(=O)NCc2nc3cc(F)ccc3[nH]2)c1`, -5.23%; that for `CN(CC(F)(F)F)C(=O)CNC(=O)N1CCCC(C(F)(F)F)C1` (centres undefined), -2.98%.
As for `CC(NC(=O)Cc1ccccc1F)(C(N)=O)c1cccc(Cl)c1` (centres undefined), the cytotoxicity at 70.5 h was -6.76%.
`CCc1nc(CC)n(CC(=O)NCc2cccc(C)c2)n1`: the cytotoxicity at 70.5 h is -6.53%.
As for `CSc1[nH]c(=O)c(C(=O)N2CCCC2c2cccs2)cc1C#N` (centres undefined), the cytotoxicity at 70.5 h is -2.03%.
Consider `CNC(=O)CN1CCC(OCc2ccc(Cl)c(Cl)c2)CC1`, for which the cytotoxicity at 70.5 h amounted to 3.41%.
On to `CC(NC(=O)Cc1cccs1)(C(N)=O)c1cccc(Cl)c1` (centres undefined), for which the cytotoxicity at 70.5 h came to 1.57%.
Regarding `CC(C)c1noc(CN2CCOCC2C)n1` (centres undefined), the cytotoxicity at 70.5 h was -4.78%.
The result for `CC(C)Cc1noc(CN2CCOCC2C)n1` (centres undefined) reads -1.45%; that for `CCCc1noc(CN2CCOCC2C)n1` (centres undefined), 20.1%; that for `CCc1nc(CC)n(CC(=O)NCc2ccccc2C)n1`, -10.6%.
On to `CC(O)(CNC(=O)c1cccnc1-n1cccn1)c1ccsc1` (centres undefined), for which the cytotoxicity at 70.5 h is -7.4%.
Turning to `COCCN1CCC(CNC(=O)c2cc(Cl)c[nH]2)CC1`, the cytotoxicity at 70.5 h is -11.1%.
`CSCc1cc(F)ccc1CNCc1cccnc1`: the cytotoxicity at 70.5 h was -6.28%.
`CCn1nc(C)cc1C(=O)NCc1noc(C(C)(C)C)n1`: the cytotoxicity at 70.5 h is -1.63%.
Turning to `Cn1c(CC2CCS(=O)(=O)C2)nnc1SCCOc1ccccc1F` (centres undefined), the cytotoxicity at 70.5 h is -8.16%.
The same measure for `N#CCCN(C(=O)CN1CCCC1C1CCCCC1)c1ccccc1` (centres undefined): 11.9%; for `Cc1ccc2oc(CNC(C)c3nnc4n3CCCC4)cc2c1` (centres undefined): 5.79%; for `CC(NCc1ccc(Cl)o1)c1nnc2n1CCCC2` (centres undefined): 9.09%.
For the compound `Cc1ccc(C(=O)NCCS(C)(=O)=O)c(=O)[nH]1`, the cytotoxicity at 70.5 h is -5.11%.
The result for `COc1cc(CN(C)C(=O)NCCC2CCCO2)ccc1SC` (centres undefined) reads -3.73%.
The same measure for `Cc1nnc(NC(=O)CN(C)CC2CCCN2c2cccnn2)s1` (centres undefined): 18.3%; for `Cc1ccc(CNC2CCN(CCc3ccncc3)CC2)s1`: 1.18%.
The same measure for `Cc1cc(C)n(-c2cncc(N3CCN(C(=O)C(C)(C)C)CC3)n2)n1`: 1.04%; for `CCS(=O)(=O)NC(C(=O)NC)c1ccc(F)c(F)c1` (centres undefined): 2.45%.
Regarding `CNC(=O)C(NC(=O)c1nccn2ccnc12)c1ccc(F)c(F)c1` (centres undefined), the cytotoxicity at 70.5 h was -1.99%.
As to `CC(=O)N1CCN(C(=O)C2SCCc3sccc32)CC1` (centres undefined), the cytotoxicity at 70.5 h came to 20.4%.
The same measure for `CC(CNC(=O)N1CCN(CC(F)F)CC1)Cc1cccs1` (centres undefined): 1.43%; for `N#CCCN(C(=O)CN1CCCC1Cc1ccccc1)c1ccccc1` (centres undefined): 0.569%.
Take `CCC1CCCCN1C(=O)c1ccc2[nH]nnc2c1` (centres undefined): the cytotoxicity at 70.5 h is -2.33%.
For `COc1cccc(CN(C)Cc2ccc(C#N)cc2)c1OC`, the cytotoxicity at 70.5 h was -1.54%.
The same measure for `Cc1cccnc1NC(=O)C1CCCN1Cc1ccccc1` (centres undefined): 8.68%; for `CS(=O)(=O)NCCC(=O)NC1CCc2nccn2C1` (centres undefined): -4.75%.
The result for `CS(=O)(=O)NCC(=O)NC1CCc2nccn2C1` (centres undefined) reads -7.92%; that for `Cc1nc(C2CCCN2C(=O)CNS(C)(=O)=O)no1` (centres undefined), -13.3%; that for `O=C(NCCCn1cccn1)N1CCCC1c1ccncc1` (centres undefined), 6.98%.
The result for `CNC(=O)NC(=O)CN1CCC(c2c[nH]c3ccc(OC)cc23)CC1` reads -5.75%.
In the case of `CCC(=O)NCC(=O)NCc1cc(Br)ccc1OC(F)F`, the cytotoxicity at 70.5 h was -5.29%.
The result for `CN(C)C(=O)CNC(=O)c1cc(Br)c2c(c1)OCCO2` reads -3.47%.
The result for `CCSCCC(=O)Nc1ncn(CC(=O)NCc2ccccc2)n1` reads -7.93%; that for `CC(Sc1nnnn1C1CCOCC1)C(=O)NC1CCCCC1` (centres undefined), -3.49%.
As to `CNC(=O)Cn1cc(C#N)c(=O)c2cc(Br)ccc21`, the cytotoxicity at 70.5 h was -3.12%.
The result for `O=C(O)c1csc(S(=O)(=O)N2CCCc3ccc(F)cc32)c1` reads -0.904%.
Turning to `C[S+]([O-])CCCNC(=O)c1cc(Br)c2c(c1)OCCO2` (centres undefined), the cytotoxicity at 70.5 h is -0.213%.
The same measure for `CCOCCn1nnc(C2(NC(=O)c3ccccc3)CCCC2)n1`: 3.3%; for `CN(CCNC(=O)N1CCN(Cc2ccon2)CC1)c1ccccc1`: -5.16%.
Consider `Cc1cnn(Cc2cc(F)ccc2F)c1NC(=O)C1COCCO1` (centres undefined), for which the cytotoxicity at 70.5 h was -0.231%.
`NC(=O)C1CCN(Cc2cccc(NC(=O)c3ccsc3)c2)CC1`: the cytotoxicity at 70.5 h was 0.035%.
The result for `CCc1nsc(NC2CCCn3nc(CC)nc32)n1` (centres undefined) reads -5.19%.
The same measure for `CCc1nc(CCNC(=O)Nc2cc(C(N)=O)sc2C)cs1`: 17%.
The same measure for `CC(=O)Nc1c(C)cnn1Cc1cc(F)ccc1F`: -2.07%.
As for `CSC(C)(C)CNC(=O)NCCC1CCN(C)CC1`, the cytotoxicity at 70.5 h is -3.38%.
As to `CN1CCCC(CNC(=O)N2CCN(Cc3ccon3)CC2)C1` (centres undefined), the cytotoxicity at 70.5 h was -0.171%.
The result for `CC(NC(=O)Cn1cccn1)c1cccnc1` (centres undefined) reads -4.88%; that for `COc1ccc(-n2cnnc2SCC(C)(C)O)cn1`, -3.59%; that for `COc1ccc(CNC(C)c2cccc(Cl)c2)c(OC)c1OC` (centres undefined), -0.149%.
The same measure for `Cc1ccc(N2CCCC(N(C)Cc3cc(C)no3)C2)nn1` (centres undefined): -2.5%.
In the case of `CN1CCN(C(CNC(=O)CCn2cccn2)c2cccs2)CC1` (centres undefined), the cytotoxicity at 70.5 h is -4.76%.
The same measure for `Cn1cccc1C1CCCN1C(=O)NCCCn1cccn1` (centres undefined): -7.92%; for `FC(F)(F)COCCN1CCCC(c2noc(C3CC3)n2)C1` (centres undefined): -10.4%; for `O=C(COc1cccc(Br)c1)N1CCN(c2nccs2)CC1`: 14.3%.
The result for `CCn1cc(NC(=O)NC2CCCc3c2cnn3CCO)cn1` (centres undefined) reads -2.96%; that for `COc1ncccc1C(=O)N1CCC(CNC(C)=O)CC1`, -11.5%.
The result for `O=C(NCCNS(=O)(=O)c1ccc2c(c1)CCCC2)c1ccoc1` reads -8.42%.
Take `Cc1ccc(S(=O)(=O)NCCNC(=O)c2ccoc2)cc1F`: the cytotoxicity at 70.5 h turned out to be 11.8%.
In the case of `CN(C)CCn1c(=O)oc2ccc(NC(=O)c3cc(Cl)c[nH]3)cc21`, the cytotoxicity at 70.5 h is -2.49%.
